Source: article PMC12452389, “Arginine-Derived Cationic Surfactants Containing Phenylalanine and Tryptophan: Evaluation of Antifungal Activity, Biofilm Eradication, Cytotoxicity, and Ecotoxicity” (Journal of Xenobiotics, 2025)
In brackets after ≈: the same amount, converted by molar mass. Like-named read-outs stand apart in the source and are kept apart here.

Legend:
[1] = test system: erythrocytes; test: Hemolytic activity assay; format: cell-based; settings: rabbit erythrocytes
Summary of the method: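 Rabbit erythrocytes washed in PBS pH 7.4, exposed to varying surfactant concentrations in PBS for 10 min at room temperature. Hemolysis read as supernatant absorbance at 540 nm relative to distilled-water 100% lysis control; HC50 taken from concentration–response curves.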

[2] = Surface tension, pendant drop tensiometer (cmc, γc); format: physicochemical; settings: for cmc: from surface tension
Description: Surface tension was measured using a custom-built pendant drop tensiometer, as described in detail in reference. Briefly, a droplet of surfactant solution is formed at the tip of a straight-cut Teflon tube. The image of the droplet is captured using a webcam, and its shape is analyzed by fitting the droplet profile to the Laplace–Young equation [14], To minimize evaporation, all measurements were conducted in a saturated humid atmosphere. The use of this technique is especially well-suited for cationic surfactants because it helps to mitigate complications related to surface adsorption. Critical micelle concentration values (cmc) were determined by finding the intersection of the linear fits before and after the break in the curves.

[3] = parameters: method as in PMID 36559096; settings: conductivity values; cited from earlier work
[4] = test system: Daphnia magna; test: Acute toxicity, immobilization test; format: in vivo; settings: Daphnia magna, 48 h
Summary of the method: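 Neonates under 24 h old exposed in the dark at 20 °C, pH 8.0, Ca:Mg 4:1, hardness 250 mg/L as CaCO3, to ten geometric concentrations, 4 replicates of 5 animals. Immobility (no swimming after 15 s gentle stimulation) scored at 48 h; immobilization plotted against concentration on probability–log scale.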

[5] = test system: Candida rugosa ATCC 10571; test: MIC broth microdilution; format: cell-based; settings: C. rugosa; for MIC: Diutina rugosa, ATCC10571, read-out: MIC
Summary of the method: (§1)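 Broth microdilution in RPMI 1640, twofold compound dilutions 256–2 μg/mL, final inoculum 7.5 × 10^5 CFU/mL from Sabouraud-grown colonies. MIC read by turbidity and confirmed by 0.015% resazurin, 3 h at 30 °C, blue-to-pink colour change.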

[6] = test system: Candida glabrata ATCC 66032; test: MIC broth microdilution; format: cell-based
Summary of the method: as §1

[7] = test system: Candida albicans ATCC 90028; test: MIC broth microdilution; format: cell-based; settings: C. albicans; for MIC: Candida albicans, ATCC90028, read-out: MIC
Summary of the method: as §1

[8] = test system: Candida auris ATCC 21092; test: MIC broth microdilution; format: cell-based; settings: C. auris; for MIC: Candidozyma auris, ATCC21092, read-out: MIC
Summary of the method: as §1

[9] = test system: Cyberlindnera jadinii ATCC 60459 (C. jardinii); test: MIC broth microdilution; format: cell-based; settings: for Selectivity Index (HC50/MIC): C. jardini; for MIC: Williopsis jadinii
Summary of the method: as §1

[10] = test system: Candida tropicalis ATCC 7349; test: MIC broth microdilution; format: cell-based; settings: C. tropicalis; for MIC: Candida tropicalis, ATCC7349, read-out: MIC
Summary of the method: as §1

[11] = test system: Candida parapsilosis ATCC 22019; test: MIC broth microdilution; format: cell-based; settings: C. parapsilosis; for MIC: Lodderomyces parapsilosis, ATCC22019, read-out: MIC
Summary of the method: as §1

[12] = test system: Vibrio fischeri; test: Luminescence reduction test; format: cell-based; settings: Aliivibrio fischeri, 0.25 h; Vibrio fischeri bioluminescence, 15 min of exposure; 95% confidence intervals in parentheses
Description: Ecotoxicological assessment of cationic surfactants was conducted using the Vibrio fischeri luminescent bioassay. This method relies on the measurement of decreased bioluminescent output from marine bacteria following contact with potentially toxic substances. Regression analysis was used to determine the concentration of the compound that caused a 50% reduction (EC50) in the amount of light emitted by the bacteria. The stated toxicity statistics given are based on the bacteria being exposed to the ionic liquid solution for 15 min at 15 °C.

[13] = Nakaseomyces glabratus, ATCC66032, 24 h, C. glabrata, RPMI 1640, 24 h, 30 °C, read-out: MIC
[14] = Nakaseomyces glabratus, ATCC66032, C. glabrata, value in parentheses, read-out: MIC
[15] = ATCC60459, C. jardinii, RPMI 1640, 24 h, 30 °C, read-out: MIC
[16] = ATCC60459, C. jardinii, value in parentheses, read-out: MIC

Structure (SMILES) | HC50 ([1]; 10 min, room temperature) [µg/mL] | HC50 ([1]; value in parentheses) [µM] | γc (surface tension at the cmc) [2] [mNm^−1] | cmc [2] [mM] | cmc Cond [3] [mM] | EC50 [4] [µg/mL] | Selectivity Index (HC50/MIC) ([5]; Table S2) | MIC ([5]; RPMI 1640, 24 h, 30 °C) [µg/mL] | MIC ([5]; value in parentheses) [µM] | Selectivity Index (HC50/MIC) ([6]; C. glabrata, Table S2) | MIC [6, 13] [µg/mL] | MIC [6, 14] [µM] | Selectivity Index (HC50/MIC) ([7]; Table S2) | MIC ([7]; RPMI 1640, 24 h, 30 °C) [µg/mL] | MIC ([7]; value in parentheses) [µM] | Selectivity Index (HC50/MIC) ([8]; Table S2) | MIC ([8]; RPMI 1640, 24 h, 30 °C) [µg/mL] | MIC ([8]; value in parentheses) [µM] | Selectivity Index (HC50/MIC) ([9]; Table S2) | Selectivity Index (HC50/MIC) ([10]; Table S2) | other results
CCCCCCCCCCCCCCNC(=O)C(CCCNC(=N)N)NC(=O)C(N)Cc1ccccc1 (stereo not drawn) [PANHC14] | 20 ± 0.5 | 34 ± 0.8 | 28.7 ± 1.5 | 0.35 | 0.7 | 0.71 (≈ 1.37 µM) | 1.2 | 16 | 27 | 2.4 | 8 | 14 | 1.2 | 16 | 27 | 1.2 | 16 | 27 | 1.2 | 2.4 | MIC [9, 15]: 16 µg/mL; MIC [9, 16]: 27 µM; MIC ([10]; RPMI 1640, 24 h, 30 °C): 8 µg/mL; MIC ([10]; value in parentheses): 14 µM; Selectivity Index (HC50/MIC) ([11]; Table S2): 2.4; MIC ([11]; RPMI 1640, 24 h, 30 °C): 8 µg/mL; MIC ([11]; value in parentheses): 14 µM; EC50 [12]: 1.8 µg/mL (≈ 3.48 µM)
CCCCCCCCCCNC(=O)C(CCCNC(=N)N)NC(=O)C(N)Cc1c[nH]c2ccccc12 (stereo not drawn) [TANHC10] | 74 ± 2.8 | 129 ± 5 | 30.6 ± 2.0 | 5.4 | 1.7 | 9.7 (≈ 19.4 µM) | 18 | 4 | 7 | 1.15 | 64 | 112 | 1.15 | 64 | 112 | 0.6 | 128 | 224 | 1.15 | 1.15 | MIC [9, 15]: 64 µg/mL; MIC [9, 16]: 112 µM; MIC ([10]; RPMI 1640, 24 h, 30 °C): 64 µg/mL; MIC ([10]; value in parentheses): 112 µM; Selectivity Index (HC50/MIC) ([11]; Table S2): 1.15; MIC ([11]; RPMI 1640, 24 h, 30 °C): 64 µg/mL; MIC ([11]; value in parentheses): 112 µM; EC50 [12]: 2.2 µg/mL (≈ 4.4 µM)
CCCCCCCCCCCCNC(=O)C(CCCNC(=N)N)NC(=O)C(N)Cc1c[nH]c2ccccc12 (stereo not drawn) [TANHC12] | 16 ± 0.3 | 27 ± 0.6 | 28.7 ± 3.3 | 2.5 | 0.6 | 3 (≈ 5.68 µM) | 4 | 4 | 7 | 0.25 | 128 | 108 | 0.25 | 64 | 108 | 0.1 | 128 | 216 | 0.25 | 0.5 | Selectivity Index (HC50/MIC) ([5]; Table S1): 3.8; MIC ([6]; C. glabrata, RPMI 1640, 24 h, 30 °C): 64 µg/mL; Selectivity Index (HC50/MIC) ([6]; C. glabrata, Table S1): 0.12; MIC ([6]; Nakaseomyces glabratus, ATCC66032, 24 h, C. glabrata, value in parentheses, read-out: MIC): 216 µM; Selectivity Index (HC50/MIC) ([7]; Table S1): 0.25; Selectivity Index (HC50/MIC) ([8]; Table S1): 0.12; Selectivity Index (HC50/MIC) ([9]; Table S1): 0.25; MIC ([9]; ATCC60459): 108 µM; MIC ([9]; ATCC60459, 24 h): 64 µg/mL; Selectivity Index (HC50/MIC) ([10]; Table S1): 0.5; MIC ([10]; RPMI 1640, 24 h, 30 °C): 32 µg/mL; MIC ([10]; value in parentheses): 54 µM; Selectivity Index (HC50/MIC) ([11]; Table S1): 0.5; Selectivity Index (HC50/MIC) ([11]; Table S2): 0.5; MIC ([11]; RPMI 1640, 24 h, 30 °C): 32 µg/mL; MIC ([11]; value in parentheses): 54 µM; EC50 [12]: 1.9 µg/mL (≈ 3.6 µM)
